The source of these data is patent publication US4902710A, “Serotonin and norepinephrine uptake inhibitors” (Eli Lilly and Company, priority 1988, dated 1990).

For assay [1], the system named is norepinephrine (NE) uptake, cortical synaptosomes. Kind of assay: Synaptosomal uptake of 14C-l-norepinephrine (14C-NE) in rat cerebral cortex synaptosomes. Type of assay: biochemical, Male Sprague-Dawley rats. To be noted: for percent inhibition NE (numbers in parentheses): at 1000 nM, compounds which failed to achieve 50% inhibition by that concentration; for pIC50: inhibition of norepinephrine uptake in vitro, concentration needed to inhibit 50%. As for the experimental part:
(§1) This general procedure is set forth by Wong et al., in Drug Development Research 6:397-403 (1985).
(§2) Male Sprague-Dawley rats (110-150 g) from Harlan Industries (Cumberland, Id.) were fed a Purina Chow ad libitum for at least 3 days before being used in the studies. Rats were killed by decapitation. Whole brains were removed and dissected. Cerebral cortex was homogenized in 9 volumes of a medium containing 0.32M sucrose and 10 mM glucose. Crude synaptosomal preparations were isolated after differential centrifugation at 1,000 g for 10 min. and 17,000 g for 28 min. The final pellets were suspended in the same medium and kept in ice until use within the same day.
(§3) Synaptosomal uptake of ^3 H-serotonin(^3 H-5-hydroxytryptamine, ^3 H-5HT) and ^14 C-l-norepinephrine (^14 C-NE) was determined as follows. Cortical synaptosomes (equivalent to 1 mg of protein) were incubated at 37° C. for 5 min in 1 ml of Krebs-bicarbonate medium containing also 10 mM glucose, 0.1 mM iproniazid, 1 mM ascorbic acid, 0.17 mM EDTA, […] and 100 nM^14 C-NE. The reaction mixture was immediately diluted with 2 ml of ice-chilled Krebs-bicarbonate buffer and filtered under vacuum with a cell harvester (Brandel, Gaithersburg, Md.). Filters were rinsed twice with approximately 5 ml of ice-chilled 0.9% saline and were transferred to a counting vial containing 10 ml of scintillation fluid (PCS, Amersham, Arlington Heights, Ill.). Radioactivity was measured by a liquid scintillation spectrophotometer. Accumulation of ^3 H-5HT and ^14 C-NE at 4° C. represented the background and was subtracted from all samples.

Assay [2] deals with serotonin (5HT) uptake, cortical synaptosomes. Kind of assay: Synaptosomal uptake of 3H-serotonin (3H-5HT) in rat cerebral cortex synaptosomes. The settings on record: for percent inhibition 5HT (numbers in parentheses): at 1000 nM, compounds which failed to achieve 50% inhibition by that concentration; for pIC50: inhibition of 5HT uptake in vitro, concentration needed to inhibit 50%. The format is biochemical, Male Sprague-Dawley rats. As to the method: as §1, §2, §3

In assay [3] the test system is norepinephrine uptake. The settings on record: hydrochloride; cited from earlier work.
In assay [4] the test system is serotonin (5-hydroxytryptamine) uptake. To be noted: hydrochloride salt; cited from earlier work.

pIC50: −log10 of the molar value. Structures can show the parent of a compound that is named as a salt.

Regarding `CNCCC(c1ccccc1)[S+]([O-])c1ccc(C(F)(F)F)cc1` (stereo not shown) [Example 4, hydrochloride], the “percent inhibition NE (numbers in parentheses)” value (“percent inhibition NE” below) in assay [1] was determined as 6%. Besides, in assay [2], the “percent inhibition 5HT (numbers in parentheses)” value is reported as 23%.

Regarding `CNCCC(Sc1ccccc1C)c1ccccc1` (stereo not shown) [Example 2, hydrochloride], the negative logarithm of the IC50 (pIC50) was 7.10 in assay [1] and 6.78 in assay [2].

As for `CNCCC(Sc1ccc(C)s1)c1ccccc1` (stereo not shown) [Example 7, N-Methyl-3-[(5-methyl-2-thienyl)thio]benzenepropanamine hydrochloride], the pIC50 in assay [1] was 6.52; in assay [2], 6.00.

Regarding `CNCCC(Sc1cccs1)c1ccccc1` (stereo not shown) [Example 6, N-Methyl-3-(2-thienylthio)benzenepropanamine hydrochloride], the figures for the pIC50 in assay [1] and in assay [2] were 7.32 and 6.00, respectively.

In the case of `CNCCC(Oc1ccccc1C)c1ccccc1.Cl` (single isomer, unassigned; (-)) [tomoxetine hydrochloride, (-)-N-methyl-γ-(2-methylphenoxy)benzenepropanamine hydrochloride], in assay [3], the “selective norepinephrine uptake inhibition (in words)” value is reported as “selective inhibitor of norepinephrine uptake”.

On to `CNCCC(Oc1ccc(C(F)(F)F)cc1)c1ccccc1` (racemic) [fluoxetine, dl-N-methyl-γ-[4-(trifluoromethyl)phenoxy]benzenepropanamine], for which the “selective serotonin uptake inhibition (in words)” value in assay [4] is reported as “selective serotonin (5-hydroxytryptamine) uptake inhibitor”.

Regarding `CNCCC(c1ccccc1)S(=O)(=O)c1ccc(C(F)(F)F)cc1` (stereo not shown) [Example 5, N-Methyl-3-[[4-(trifluoromethyl)phenyl]sulfonyl]benzenepropanamine hydrochloride], the “percent inhibition NE” value in assay [1] came out at 1%. Also, the “percent inhibition 5HT (numbers in parentheses)” value in assay [2] is listed as 5%.

`CNCCC(Sc1ccc(C(F)(F)F)cc1)c1ccccc1` (stereo not shown) [Example 3, N-Methyl-3-[[4-(trifluoromethyl)phenyl]thio]benzenepropanamine hydrochloride]: the “percent inhibition NE” value in assay [1] was 11%. The molecule further gave a pIC50 in assay [2] of 6.96.

With `CNCCC(Sc1ccccc1OC)c1ccccc1` (stereo not shown) [Example 1, N-Methyl-3-[(2-methoxyphenyl)thio]benzenepropanamine hydrochloride], the values for the pIC50 in assay [1] and in assay [2] were 7.38 and 6.57, respectively.

As a reminder, the pIC50 is the IC50 on a negative log10 scale, so that one unit is a factor of ten.
